Article PMC4777897 (Progress in neuro-psychopharmacology & biological psychiatry, 2015)

How the values were obtained:
[1] = test system: participants who met criteria for cocaine use disorder; experiment: Adverse events, inpatient study of oral nepicastat with IV cocaine; assay type: in vivo, human
[2] = test system: participants who met criteria for cocaine use disorder; experiment: Cocaine-induced cardiovascular effects; assay type: in vivo, human; conditions: nepicastat 0, 80, 160 mg; cocaine 0, 10, 20, 40 mg IV; n = 13
[3] = test system: participants who met criteria for cocaine use disorder; experiment: Cocaine-induced subjective effects; assay type: in vivo, human; conditions: VAS
[4] = test system: participants who met criteria for cocaine use disorder; experiment: Reinforcing effects: choice session, cocaine vs money self-administration; assay type: in vivo, human; conditions: Day 13; nepicastat 0 or 160 mg; cocaine 0 or 20 mg IV
[5] = test system: DA and NE release in mPFC and NAc; conditions: rats, microdialysis; ref Devoto et al., 2014; cited from earlier work
rats = conditions: ref Schroeder et al., 2013; cited from earlier work
[6] = Plasma pharmacokinetics of cocaine after 10 mg IV infusion; conditions: cocaine 10 mg IV
[7] = Treatment–Cocaine period, nepicastat group n = 14

Cl.NCc1c[nH]c(=S)n1[C@H]1CCc2c(F)cc(F)cc2C1.O [nepicastat, (S)-5-aminomethyl-1-(5,7-difluoro-1,2,3,4-tetrahydronaphth-2-yl)-1,3-dihydroimidazole-2-thione hydrochloride monohydrate]
Incidence of Abnormal dreams [1, 7]: 0 (0) number (%) of subjects
Incidence of Arthralgia [1, 7]: 2 (14) number (%) of subjects
Incidence of Back pain [1, 7]: 0 (0) number (%) of subjects
Incidence of Depressed mood [1, 7]: 1 (7) number (%) of subjects
Incidence of Dizziness [1, 7]: 0 (0) number (%) of subjects
Incidence of Dyspepsia [1, 7]: 2 (14) number (%) of subjects
Incidence of Gastroesophageal reflux disease [1, 7]: 3 (21) number (%) of subjects
Incidence of Headache [1, 7]: 2 (14) number (%) of subjects
Incidence of Insomnia [1, 7]: 4 (29) number (%) of subjects
Incidence of Myalgia [1, 7]: 0 (0) number (%) of subjects
Incidence of Nausea [1, 7]: 1 (7) number (%) of subjects
Incidence of Neck pain [1, 7]: 2 (14) number (%) of subjects
Incidence of Vessel puncture site hematoma [1, 7]: 0 (0) number (%) of subjects
Incidence of Vessel puncture site pain [1, 7]: 4 (29) number (%) of subjects
Safety and tolerability (number, type, severity and duration of AEs vs placebo) ([1]; oral nepicastat 80 and 160 mg during IV cocaine exposure): safe and well-tolerated
Main effect on peak heart rate (ANOVA) [2]: one was detected
Main effect on peak systolic or diastolic blood pressure (ANOVA) [2]: did not reveal a main effect
Effect on negative subjective effects ([3]; nepicastat 80 and 160 mg oral with IV cocaine): did not increase
Reduction of the positive subjective effects produced by cocaine ([3]; nepicastat 80 and 160 mg oral, n = 13): ~ 25%
Main effect on choices for cocaine vs money (ANOVA) [4]: did not reveal a main effect
DA release in the mPFC and NAc [5]: increasing DA release in the mPFC but not in the NAc
Breakpoint for cocaine (rats): significantly lowered
Effect on PK parameters of benzoylecgonine or ecgonine methyl ester ([6]; Day 3 vs Day 11, data not shown): None of the PK parameters for benzoylecgonine or ecgonine methyl ester showed statistically significant changes
Effect on kinetics, metabolism or clearance of cocaine or its metabolites ([6]; oral nepicastat 160 mg): did not change
